Measurements from US4778824A, “Method for suppressing a transplantation immunity and treating an allergic disease and an autoimmune disease” (Zaidan Hojin Biseibutsu Kagaku Kenkyu Kai, priority 1984, dated 1988).
“Also recorded” adds a separate entry of the source.

Tests used:
[1] = tested on: Skin allograft rejection (SHR to Fischer rats); assay: Inhibition of rejection of skin allograft; format: in vivo
Description: (§1) In the next place, the present inventors conducted a skin graft test with rats. In accordance with the method of Denham et al. (Denham et al., International Archives of Allergy and Applied Immunology, vol. 62, pp. 443-458, 1980), the skin of the tail of SHR rats was peeled and allografted onto Fischer rats. […] The inhibitory action of spergualin on tissue rejections is expected to manifest itself not only in skin transplantation but also in the transplantation of such organs as the kidney, heart, spleen, lung, liver, bone marrow and endocrine organs.
(§2) Skin sections (5×10 mm) were peeled from the tails of SHR rats (female, 10 wk old) and transplanted to Fischer rats (female, 10 wk old) on the back. Varying doses of spergualin were administered intraperitoneally for a consecutive period of 10 or 20 days starting on the day following the transplantation. Complete necrosis of the graft was used as a measure of rejection and the inhibitory action of the compound was evaluated in terms of how long the rejection was postponed. […] The longer the period of administration, the greater the inhibitory action.

bone marrow = assay: Bone marrow inhibition in the skin allograft test; format: in vivo, Fischer rats; details: i.p., 10 or 20 days
Description: as §1, §2

mice = details: cited from earlier work

N=C(N)NCCCCC(O)CC(=O)NC(O)C(=O)NCCCCNCCCN (stereo not drawn) [spergualin, Spergualin]
dose dependence of inhibitory action on skin allograft rejection ([1]; i.p., 10 or 20 days): dose-dependent | inhibition of the rejection ([1]; throughout the administration period): Complete inhibition of the rejection | inhibition of the bone marrow (bone marrow): No inhibition of the bone marrow was observed; also recorded: No such side effects as bone marrow inhibition were observed | cumulative toxicity (mice): No cumulative toxicity was observed | lethality (mice; gradual intravenous administration of 80 mg/kg): not lethal | LD50 (mice; intraperitoneal): approximately 150 mg/kg
